Results on 2 molecules are retold here after patent US6069167A, “Use of antioxidant agents to treat cholestatic liver disease” (priority 1997, dated 2000).

Data set [1] has as its system TCDC hepatic toxicity. It is filed as in vivo, male Sprague-Dawley rats. The source says: Young adult male Sprague-Dawley rats (150-180 gram weight) purchased from Sasco, Inc. (Omaha, Nebr.) were fed Purina Lab Chow (Ralston Purina Co., Chicago, Ill.) ad libitum for 2-3 weeks and housed in polyethylene cages with stainless steel tops on a 12-hour light-dark cycle. All rats received humane care in compliance with the guidelines of the Animal Use in Research Committee of the University of Colorado Health Sciences Center. […] TCDC is a conjugate of the bile acid most implicated in cholestatic liver injury9,11,12. TCDC was solubilized in 5% dextrose, 10% BSA, and 0.45% normal saline. TCDC was administered while rats were under light methoxyflurane anesthesia as an intravenous bolus of the desired dose in 1 to 2 minutes through the tail vein. TCDC dosing was performed between 7 and 9 am. […] Rats were divided into two treatment groups. One group was pretreated with parenteral Vitamin E (all-rac-alpha tocopherol, […], Hoffmann-LaRoche,Nutley, N.J.). The other group was not pretreated. These rats then received either vehicle or TCDC (10 μmol/[…]) by tail vein injection (as described in Example 1). […] All i.p. injections were administered under light methoxyflurane anesthesia. Following the vitamin E or saline injections, rats were randomly assigned to receive a tail vein bolus injection of either TCDC or vehicle. Rats were sacrificed four hours later and serum was analyzed for AST, ALT, total bilirubin and alkaline phosphatase. […] The serum alpha tocopherol:total lipids ratio (mg/gm) was calculated as an additional index of vitamin E status^41.

Data set [2] can be described thus: in vivo. Further details: species or system male Sprague-Dawley rats. To be noted: rat. As to the method:
Rats were divided into two treatment groups. One group was pretreated with parenteral Vitamin E (all-rac-alpha tocopherol, […], Hoffmann-LaRoche,Nutley, N.J.). The other group was not pretreated. These rats then received either vehicle or TCDC (10 μmol/[…]) by tail vein injection (as described in Example 1). […] All i.p. injections were administered under light methoxyflurane anesthesia. Following the vitamin E or saline injections, rats were randomly assigned to receive a tail vein bolus injection of either TCDC or vehicle. Rats were sacrificed four hours later and serum was analyzed for AST, ALT, total bilirubin and alkaline phosphatase. […] The serum alpha tocopherol:total lipids ratio (mg/gm) was calculated as an additional index of vitamin E status^41. The liver was rapidly removed at sacrifice, the hepatic mitochondria were isolated as set forth above and analyzed for lipid-conjugated dienes as described above. A specimen of liver was also immediately frozen, protected from light and stored at -70° C. and subsequently analyzed for alpha tocopherol and reduced ubiquinol-9 by HPLC with electrochemical detection^42. The results were expressed as nmol alpha tocopherol or nmol reduced ubiquinol-9 per gram wet weight of liver.

Data set [3] concerns hepatic mitochondria. As to the kind of experiment: Lipid-conjugated dienes of hepatic mitochondria (lipid peroxidation). It is filed as in vivo, male Sprague-Dawley rats. To be noted: for Lipid-conjugated dienes: 4 h. As to the method: Hepatic Mitochondria Isolation
Mitochondria were isolated from 10 grams of fresh liver from individual rats by a modification of a previously described method^27. Briefly, the liver was gently homogenized in a loose-fitting Potter-Elvehjm homogenizer in buffer containing 225 mM mannitol, 70 mM sucrose, 3 mM KH2 PO4, 2mM EDTA, 0.1% BSA, 5 mM MgCl2 (pH 7.0), filtered through cheesecloth and centrifuged at 400g×10 minutes. The supernatant was centrifuged at 10,000g for 10 minutes. The supernatant was aspirated and the pellet resuspended and centrifuged at 10,000g for 10 minutes. The resulting mitochondrial pellet was resuspended in 15 ml of buffer, divided into three tubes and added to digitonin (Sigma Chemical Company, St Louis, Mo., 0.29 mg for each gram of original liver) on wet ice×20 minutes, in order to minimize any contamination by lysosomes^28. The resulting mitochondrial preparation was washed two times in the original buffer and centrifuged at 10,000g for 10 minutes. Samples of the pellet were taken for enzyme marker analysis. Two more washes were then performed using a buffer containing 50 mM MOPS/100 mM KCI, yielding the final mitochondrial pellet.
Fresh mitochondria were analyzed for lipid peroxidation as an index of oxidant damage by the lipid-conjugated diene method of Recknagel and Ghoshal^35 with the modification of Bacon et al^36. Briefly, lipids were extracted from mitochondria pellets with chloroform and methanol (2:1, vol/vol), and the lipid in chloroform was dried under a stream of oxygen-free nitrogen^27. The dried lipid was redissolved in 1.5 ml of spectrophotometric grade cyclohexane. Absorbance from 220 to 275 nm was recorded against a cyclohexane blank on a Lambda 2 UV/is Spectrometer (Perkin-Elmer Corp., Norwalk, Conn.). Lipid concentration was approximately 0.5 mg/mi of cyclohexane. After the UV measurements, a 250 μl aliquot from each sample was analyzed for total lipid content by the method of Chiang et al.^37, and absorbance measurements were normalized to a denominator of 1.0 mg lipid per ml of cyclohexane. Lipid peroxidation was estimated by calculating the difference in absorption at 233 nm (the peak absorbance for conjugated dienes) between each rat and the mean of the values from control rats.
Because serum AST and ALT concentrations peaked at 4 hours, further evaluation of liver injury was performed at that time point Total concentrations (conjugated+free bile acids) of individual bile acids were measured in serum obtained at 4 hours by gas chromatography-mass spectroscopy (GC-MS), as previously described^30. Briefly, after serum samples were extracted with the addition of the internal standard 7-alpha, 12-alpha, dihydroxy-5 beta cholanic acid, trimethylsilyl esterification was performed. Individual bile acids were then quantified by GC or GC-MS using a Hewlett-Packard 5790 flame ionization detector equipped with a 30 meter DB-1 capillary column with internal diameter of 0.25 mm and a film thickness of 0.25 micrometers (J & W Scientific, Folsom, Calif.). For GC-MS measurements, a Hewlett-Packard 5970-A mass selective detector operating in selective ion monitoring mode was used. Results were expressed as μmol/L for each individual bile acid.
Rats were divided into two treatment groups. One group was pretreated with parenteral Vitamin E (all-rac-alpha tocopherol, Ephynal, Hoffmann-LaRoche,Nutley, N.J.). The other group was not pretreated. […]

The subject of data set [4] is cholestatic disorders. The note with it: cited from earlier work.
Setting [5] is: parenteral vitamin E pretreatment, rats receiving TCDC.

Read-outs that look alike come from different tables or passages of the source.

As for `Cc1c(C)c2c(c(C)c1O)CCC(C)(CCCC(C)CCCC(C)CCCC(C)C)O2` (racemic) [Vitamin E, all-rac-alpha tocopherol], in data set [1] (Vitamin E/TCDC, n = 12, 4 h), the ALT is 325 ± 78 IU/L, the AST amounted to 870 ± 278 IU/L and the Bilirubin was 0.2 ± 0.02 mg/dL. In data set [1] (setting [5]), the “Decrease in serum ALT” value is given as “approximately 70%” and the “Decrease in serum AST” value is listed as “approximately 70%”. In data set [1] (rat, in vivo), this molecule had an ALT of 61 ± 5 IU/L, an AST of 81 ± 2 IU/L and a Bilirubin of 0.2 ± 0.02 mg/dL. Further, the “Hepatic injury and mitochondrial lipid peroxidation, overall result” value in data set [1] (vitamin E pretreatment, TCDC) was “attenuated both the hepatic injury and the severity of mitochondrial lipid peroxidation”. In data set [2], the “Hepatic alpha tocopherol concentrations, change” value was “significant increases”; the “Serum vitamin E concentrations, change” value is recorded as “significant increases”; the “Serum vitamin E:total lipid ratios, change” value is “significant increases”. The molecule further gave a Serum alpha tocopherol in data set [2] (4 h) of 13.2 ± 0.7 µg/mL. This molecule gave a concentration at 4 h in data set [2] (Serum alpha tocopherol) of 9900 ± 700 ng/mL. In addition, in data set [3] (Vitamin E/TCDC, n = 12), the Lipid-conjugated dienes is 0.13 ± 0.01 delta abs. 233 nm/mg lipid. Also, the Lipid-conjugated dienes in data set [3] (Vitamin E/Vehicle, n = 7) is given as -0.03 ± 0.02 delta abs. 233 nm/mg lipid. Further, the “Mitochondrial lipid-conjugated dienes, change” value in data set [3] (vitamin E pretreatment, i.v. TCDC group) was “significant reduction”.

For the molecule `C[C@H](CCC(=O)O)[C@H]1CC[C@H]2[C@@H]3[C@@H](O)C[C@@H]4C[C@H](O)CC[C@]4(C)[C@H]3CC[C@]12C` [ursodeoxycholic acid], the “Hepatoprotective and choleretic effects” value in data set [4] was “hepatoprotective as well as choleretic effects”.
